Data as given in ChEMBL document CHEMBL3739357, “Replacement of cardiotoxic aminopiperidine linker with piperazine moiety reduces cardiotoxicity? Mycobacterium tuberculosis novel bacterial topoisomerase inhibitors” (Bioorg Med Chem, 2016).
In brackets after ≈: the same amount, converted by molar mass.

Key:
[1] = molecular target: DNA gyrase subunit A/DNA gyrase subunit B (Mycobacterium tuberculosis (strain ATCC 25618 / H37Rv), UniProt P9WG45+P9WG47); assay: Inhibition of Mycobacterium tuberculosis DNA gyrase assessed as inhibition of supercoiling activity using relaxed pBR322 plasmid as substrate after 30 mins
[2] = Cytotoxicity against mouse RAW264.7 cells at 50 uM after 48 hrs by MTT assay; format: cell-based; settings: read-out: INH
[3] = test system: Mycobacterium tuberculosis; assay: Antimycobacterial activity against Mycobacterium tuberculosis H37Rv after 7 days by alamar blue assay; format: functional; settings: 168 h
[4] = species: Danio rerio; assay: Toxicity in zebrafish embryo assessed as heart rate at 30 uM after 4 hrs; format: organism-based; settings: in vivo
[5] = species: Danio rerio; assay: Toxicity in zebrafish embryo assessed as artrio-ventricular ratio at 30 uM after 4 hrs; format: organism-based; settings: in vivo
[6] = species: Danio rerio; assay: Toxicity in zebrafish embryo assessed as heart rate at 10 uM after 4 hrs; format: organism-based; settings: in vivo
[7] = species: Danio rerio; assay: Toxicity in zebrafish embryo assessed as artrio-ventricular ratio at 10 uM after 4 hrs; format: organism-based; settings: in vivo

Chain of DNA gyrase subunit A/DNA gyrase subunit B (P9WG45 whole entry): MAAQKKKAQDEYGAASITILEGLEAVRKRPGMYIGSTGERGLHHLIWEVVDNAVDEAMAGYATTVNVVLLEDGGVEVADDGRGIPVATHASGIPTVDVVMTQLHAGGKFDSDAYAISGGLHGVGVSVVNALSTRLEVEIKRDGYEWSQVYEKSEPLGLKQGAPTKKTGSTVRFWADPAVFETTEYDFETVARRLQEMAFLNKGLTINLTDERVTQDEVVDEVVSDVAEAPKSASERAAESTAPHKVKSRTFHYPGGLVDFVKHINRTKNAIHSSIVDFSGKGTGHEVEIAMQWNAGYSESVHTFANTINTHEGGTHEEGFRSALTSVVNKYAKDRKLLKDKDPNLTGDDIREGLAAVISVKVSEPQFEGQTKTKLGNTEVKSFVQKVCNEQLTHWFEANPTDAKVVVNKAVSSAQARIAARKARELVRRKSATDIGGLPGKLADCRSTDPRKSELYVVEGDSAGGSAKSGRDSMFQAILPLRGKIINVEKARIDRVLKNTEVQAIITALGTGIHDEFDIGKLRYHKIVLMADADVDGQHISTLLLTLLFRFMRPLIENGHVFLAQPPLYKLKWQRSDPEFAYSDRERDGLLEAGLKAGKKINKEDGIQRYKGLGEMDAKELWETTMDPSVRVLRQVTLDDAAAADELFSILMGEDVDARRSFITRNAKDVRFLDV
Chain of DNA gyrase subunit A/DNA gyrase subunit B (P9WG47 whole entry): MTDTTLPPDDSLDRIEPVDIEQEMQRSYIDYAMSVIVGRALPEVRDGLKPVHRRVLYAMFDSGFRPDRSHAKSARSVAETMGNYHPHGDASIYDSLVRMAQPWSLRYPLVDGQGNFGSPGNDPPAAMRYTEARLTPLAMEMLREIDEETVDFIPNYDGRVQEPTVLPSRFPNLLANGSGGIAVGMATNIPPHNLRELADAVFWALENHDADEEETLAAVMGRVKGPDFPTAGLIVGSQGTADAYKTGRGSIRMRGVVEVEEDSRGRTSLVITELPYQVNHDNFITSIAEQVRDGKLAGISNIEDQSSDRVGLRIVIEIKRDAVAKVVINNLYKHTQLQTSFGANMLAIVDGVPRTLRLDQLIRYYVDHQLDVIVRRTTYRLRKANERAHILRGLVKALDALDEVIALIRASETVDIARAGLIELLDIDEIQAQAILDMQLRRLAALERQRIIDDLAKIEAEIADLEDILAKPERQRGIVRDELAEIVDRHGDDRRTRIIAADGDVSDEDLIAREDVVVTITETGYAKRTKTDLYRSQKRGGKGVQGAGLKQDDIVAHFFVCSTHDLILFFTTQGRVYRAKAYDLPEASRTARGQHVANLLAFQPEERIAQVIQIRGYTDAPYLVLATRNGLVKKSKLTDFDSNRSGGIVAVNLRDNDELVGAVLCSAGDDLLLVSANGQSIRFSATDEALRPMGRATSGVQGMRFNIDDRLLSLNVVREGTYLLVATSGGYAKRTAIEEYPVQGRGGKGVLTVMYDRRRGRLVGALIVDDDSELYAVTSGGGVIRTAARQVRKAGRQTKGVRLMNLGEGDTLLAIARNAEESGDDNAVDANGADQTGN

Row | Structure (SMILES) | IC50 [1] | cytotoxicity at 48 h, 50 µM [2] | MIC [3] | Activity [4] | Activity [5] | Activity [6] | Activity [7]
1 | COc1ccc(CNC(=S)N2CCN(CCn3c(=O)ccc4ncc(OC)cc43)CC2)cc1 | 15.5 µM | 17.1% | 26.7 µM (≈ 12.5 µg/mL) | – | – | – | –
2 | COc1cnc2ccc(=O)n(CCN3CCN(Cc4ccc([N+](=O)[O-])cc4)CC3)c2c1 | 0.98 µM | 37.6% | 7.38 µM (≈ 3.13 µg/mL) | – | – | – | –
3 | COc1cnc2ccc(=O)n(CCN3CCN(C(=S)Nc4ccc(C)cc4)CC3)c2c1 | 11.5 µM | 26.8% | 10.7 µM (≈ 4.66 µg/mL) | – | – | – | –
4 | COc1ccc(CNC(=O)N2CCN(CCn3c(=O)ccc4ncc(OC)cc43)CC2)cc1 | 14.6 µM | 37.6% | 27.7 µM (≈ 12.5 µg/mL) | – | – | – | –
5 | COc1cnc2ccc(=O)n(CCN3CCN(C(=O)Nc4ccc(F)cc4)CC3)c2c1 | 11.6 µM | 25.2% | 14.7 µM (≈ 6.25 µg/mL) | – | – | – | –
6 | COc1cnc2ccc(=O)n(CCN3CCN(C(=O)Nc4ccc(C(C)=O)cc4)CC3)c2c1 | 19.4 µM | 18.6% | 26.9 µM (≈ 12.1 µg/mL) | – | – | – | –
7 | COc1cnc2ccc(=O)n(CCN3CCN(Cc4ccc(Cl)cc4)CC3)c2c1 | 0.81 µM | 26.5% | 10.1 µM (≈ 4.17 µg/mL) | – | – | – | –
8 | COc1cnc2ccc(=O)n(CCN3CCN(C(=S)Nc4ccc(C(C)=O)cc4)CC3)c2c1 | 16.4 µM | 3.16% | 10.7 µM (≈ 4.96 µg/mL) | – | – | – | –
9 | COc1cnc2ccc(=O)n(CCN3CCN(C(=S)Nc4ccccc4)CC3)c2c1 | 15.4 µM | 32.6% | 29.5 µM (≈ 12.5 µg/mL) | – | – | – | –
10 | COc1cnc2ccc(=O)n(CCN3CCN(C(=O)Nc4ccc([N+](=O)[O-])cc4)CC3)c2c1 | 0.29 µM | 5.08% | 3.45 µM (≈ 1.56 µg/mL) | Toxic | Toxic | Toxic | Toxic
11 | COc1cnc2ccc(=O)n(CCN3CCN(C(=O)Nc4ccc(C)cc4)CC3)c2c1 | 2.68 µM | 32.3% | 7.41 µM (≈ 3.12 µg/mL) | – | – | – | –
12 | COc1cnc2ccc(=O)n(CCN3CCN(C(=S)NCc4ccc(Cl)cc4)CC3)c2c1 | 0.95 µM | 24.9% | 4.31 µM (≈ 2.03 µg/mL) | – | – | – | –
13 | COc1cnc2ccc(=O)n(CCN3CCN(C(=O)NCc4ccc(Cl)cc4)CC3)c2c1 | 0.92 µM | 24.6% | 6.6 µM (≈ 3.01 µg/mL) | – | – | – | –
14 | COc1cnc2ccc(=O)n(CCN3CCN(C(=O)Nc4ccccc4)CC3)c2c1 | 13.5 µM | 9.54% | 30.7 µM (≈ 12.5 µg/mL) | – | – | – | –
15 | COc1cnc2ccc(=O)n(CCN3CCN(C(=S)Nc4ccc([N+](=O)[O-])cc4)CC3)c2c1 | 18.5 µM | 17.3% | 26.7 µM (≈ 12.5 µg/mL) | – | – | – | –
16 | COc1cnc2ccc(=O)n(CCN3CCN(Cc4ccc(Br)cc4)CC3)c2c1 | 6.44 µM | 2.15% | 13.7 µM (≈ 6.25 µg/mL) | – | – | – | –
17 | COc1cnc2ccc(=O)n(CCN3CCN(C(=S)Nc4ccc(Cl)cc4)CC3)c2c1 | 12.8 µM | 6.59% | 13.6 µM (≈ 6.25 µg/mL) | – | – | – | –
18 | COc1cnc2ccc(=O)n(CCN3CCN(C(=S)Nc4ccc(F)cc4)CC3)c2c1 | 14.7 µM | 21.6% | 14.2 µM (≈ 6.25 µg/mL) | – | – | – | –
19 | COc1cnc2ccc(=O)n(CCN3CCN(C(=O)Nc4ccc(Br)cc4)CC3)c2c1 | 0.75 µM | 24.4% | 3.21 µM (≈ 1.56 µg/mL) | – | – | – | –
20 | COc1cnc2ccc(=O)n(CCN3CCN(C(=S)Nc4ccc(Br)cc4)CC3)c2c1 | 0.49 µM | 1.06% | 3.8 µM (≈ 1.91 µg/mL) | – | – | – | –
21 | COc1ccc(CN2CCN(CCn3c(=O)ccc4ncc(OC)cc43)CC2)cc1 | 1.34 µM | 15.9% | 3.82 µM (≈ 1.56 µg/mL) | – | – | – | –
22 | COc1cnc2ccc(=O)n(CCN3CCN(Cc4ccccc4)CC3)c2c1 | 0.94 µM | 15% | 4.12 µM (≈ 1.56 µg/mL) | – | – | – | –
23 | COc1cnc2ccc(=O)n(CCN3CCN(C(=O)Nc4ccc(Cl)cc4)CC3)c2c1 | 0.32 µM | 27% | 7.06 µM (≈ 3.12 µg/mL) | Toxic | Toxic | – | –
24 | COc1cnc2ccc(=O)n(CCN3CCN(Cc4ccc(F)cc4)CC3)c2c1 | 0.91 µM | 26.4% | 15 µM (≈ 5.95 µg/mL) | – | – | – | –
25 | CC[C@@H](CO)NCCN[C@@H](CC)CO [ETHAMBUTOL] | – | – | 9.84 µM (≈ 2.01 µg/mL) | – | – | – | –
26 | COc1c(N2C[C@@H]3CCCN[C@@H]3C2)c(F)cc2c(=O)c(C(=O)O)cn(C3CC3)c12 [MOXIFLOXACIN] | – | – | 2.4 µM (≈ 0.963 µg/mL) | – | – | – | –
27 | CO[C@@H]1[C@@H](OC(N)=O)[C@@H](O)[C@H](Oc2ccc3c(O)c(NC(=O)c4ccc(O)c(CC=C(C)C)c4)c(=O)oc3c2C)OC1(C)C [NOVOBIOCIN] | – | 19.3% | > 200 µM | – | – | – | –
